Where two headings read alike, the source gives them in different places.
Experiments:
rat isolated left atrium = assay: Inhibition of the veratrine-induced contraction of the rat isolated left atrium; assay type: cell-based; settings: for IC50: read-out: Contraction with veratrine Inhibition IC50; for in vitro activity (contraction with veratrine): stated in words
New Zealand rabbits = assay: Occlusion-reperfusion model in the anesthetized animal (ECG ST segment, arterial pressure, heart rate); assay type: in vivo, rabbit; settings: for ST segment % inhibition at 2.5 mg/kg p.o. / Arterial pressure % variation / Heart rate % variation: anesthetized rabbit, 2.5 mg/kg p.o.; for ST segment % inhibition at 2.5 mg/kg p.o.: coronary occlusion-reperfusion; for in vivo activity (inhibition of the raising of the ST segment): stated in words, 2.5 mg/kg by the oral route
Description: Thus, the compounds of the invention are capable of normalizing the electrical disturbances of the ECG brought about by a regional ischemia followed by a reperfusion, this being achieved without a significant effect on the hemodynamic parameters. The test in question is carried out according to the technique described in J. Cardiovasc. Pharmacol., 1995, 25, 126 according to the following protocol.
Male New Zealand rabbits (Elévage des Dombes, Romans, Chatillon-sur-Chalaronne, France) weighing 2.2 to 2.7 kg are used. The animals are placed in quarantine for 4 to 8 days with free access to standardized laboratory food before they are used in the experiments. The animals are housed individually. Water filtered through a 0.22 μm filter is freely available from an automatic dispenser. The quarantine area and the experimental laboratory are air-conditioned (temperature: 20±3° C.; relative humidity: 55±5%) and are illuminated from 7 a.m. to 7 p.m. All the animals are treated according to the code of ethics for laboratory animals (Guide for the Care and Use of Laboratory Animals, […], Public Health Service, National Institutes of Health publication No. 85-23, Revised 1985) and the protocol (No. 28) is carried out in accordance with the recommendations of the local research animals ethics committee. The animals are anesthetized using sodium pentobarbital (60 mg/kg) administered intravenously (i.v.) via a catheter positioned in the vein of the ear. The animals are instrumented with respiratory assistance (683 rodent/small animal ventilator, Havard Apparatus, Les Ulis, France). The gas mixture inhaled is enriched in oxygen. The respiratory rhythm, the flow volume and the percentage of oxygen in the gas mixture are adjusted so as to keep the gases in the blood within physiological limits. A polyethylene catheter, introduced into the carotid artery, is used both for the measurements of arterial pressure and to take the samples intended for the analysis of the blood gases (ABL 510, Radiometer, Copenhagen, Denmark). Anesthesia is maintained by injections of sodium pentobarbital as required. The body temperature of the animals is kept at 38–39° C. throughout the duration of the experiment using a heating blanket (Homothermic Blanket, Havard Apparatus). The various catheters are rinsed using a sterile saline solution (0.9%) comprising heparin (150 U.I./ml). The ECG (DII derivation) is recorded in order to measure the variations in the heart rate (RR interval) and in the amplitude of the ST segment. The arterial pressure is digitized and analyzed simultaneously (Dataflow®, Crystal Biotech, Northboro, Mass.). The thorax of the animal is opened at the fourth intercostal space and the pericardium is incised so as to reveal the left coronary artery. A ligature (Vicryl®, 5/0, Ethicon, Paris, France) is passed under this artery. After examining the ECG in order to detect any signs of myocardial lesions (persistent rise of the ST segment above 0.25 mV), a period of stabilization lasting 30 min is systematically observed. Any animal showing a possible myocardial lesion is excluded from the study. The test compound or the vehicle is administered per os (p.o.), as a 1% solution in methyl-cellulose, in a proportion of 1 ml/kg via a gastric tube made of flexible rubber. Anesthesia is produced 60 min after administration of the test compound or of the vehicle. The main coronary artery is then ligated for 10 min, i.e. 60 min after anesthesia, the tension in the ligature is subsequently relaxed completely for 10 min and then reestablished at the end of the procedure. The heart is excised and perfused using a formaldehyde solution (10%). The surface not fixed by the formaldehyde is regarded as the surface at risk.
The parameters measured in the experiment are: • the systolic and diastolic arterial pressure; • the heart rate (measured from the RR intervals); • the amplitude of the ST segment. […]

[1] = rat isolated left atrium, veratrine 100 μg/ml, product added 15 min before

SMILES	IC50 (rat isolated left atrium; [1])	IC50 (rat isolated left atrium; Rattus norvegicus)	ST segment % inhibition at 2.5 mg/kg p.o. (New Zealand rabbits)	Arterial pressure % variation (New Zealand rabbits)	Heart rate % variation (New Zealand rabbits)	in vitro activity (contraction with veratrine) (rat isolated left atrium)	in vivo activity (inhibition of the raising of the ST segment) (New Zealand rabbits)
CN(c1nc2ccccc2s1)C1CCN(CCCCOc2ccc(F)cc2)CC1 [R 56865]		250 nM	0%				
CC(C)NCC(O)COc1ccc(CC(N)=O)cc1 (stereo not shown) [Atenolol, atenolol]	> 10000 nM		49%	−9%	−13%	inactive	active
COc1ccc([C@@H]2Sc3ccccc3N(CCN(C)C)C(=O)[C@@H]2OC(C)=O)cc1 [Diltiazem, diltiazem]	> 10000 nM		30%	−27%	−5%	inactive	active

Continued, in another order:

IC50 (rat isolated left atrium; [1])	SMILES	IC50 (rat isolated left atrium; Rattus norvegicus)	ST segment % inhibition at 2.5 mg/kg p.o. (New Zealand rabbits)	Arterial pressure % variation (New Zealand rabbits)	Heart rate % variation (New Zealand rabbits)	in vitro activity (contraction with veratrine) (rat isolated left atrium)	in vivo activity (inhibition of the raising of the ST segment) (New Zealand rabbits)
640 nM	COc1ccccc1SC[C@H](CN[C@@H]1COc2ccccc2SC1)OC [Compound 1-1, 3-(R)-[3-(2-Methoxyphenylthio)-2-(S)-methoxypropyl]amino-3,4-dihydro-2H-1,5-benzoxathiepine]		85%	8%	2%		
140 nM	COc1ccccc1SC[C@@H](C)CN[C@@H]1COc2ccccc2SC1 [Compound 1-7, 3-(R)-[3-(2-Methoxyphenylthio)-2-(S)-methylpropyl]amino-3,4-dihydro-2H-1,5-benzoxathiepine]		69%	5%	0%		

From US7109234B2, “Benzoxathiepine derivatives and their use as medicines” (Pierre Fabre Medicament, priority 2001, dated 2006)
